Results on 22 molecules are retold here after patent US6613791B1, “N-substituted azaheterocyclic carboxylic acids and their use” (Novo Nordisk A/S, priority 1994, dated 2003).

The term melting point denotes the temperature of the solid-liquid transition.

SMILES strings stand for the structures. Some results are limits rather than exact numbers.

The subject of the first data set is formalin induced pain response. The data set is described as follows: Formalin induced pain or paw oedema in mice. Format: in vivo. Conditions: 0.1 mg/kg; NMRI female mice, 20 μl 1% formalin into left hind paw. As for the experimental part:
Values for in vivo inhibition of formalin induced pain or oedema for the compounds of the present invention were assessed in mice essentially by the method of Wheeler-Aceto and Cowan (Agents Action 1991, 34, 265-269).
About 20 g NMRI female mice were injected 20 μl 1% formalin into the left hind paw. The animals were then placed on a heated (31° C.) table, and the pain response was scored. After 1 h they were killed and bled. Left and right hind paws were removed and the weight difference between the paws was used as indication of the oedema response of the formalin injected paw.
For the molecule `Cl.OC1(c2ccc(Cl)cc2)CCN(CCCN2c3ccccc3CCc3ccccc32)CC1` [Example 2, 4-(4-Chlorophenyl)-1-(3-(10,11-dihydro-5H-dibenz[b,f]azepin-5-yl)-1-propyl)piperidin-4-ol Hydrochloride], the “% Pain inhibition (inhibition of formalin induced pain response)” value came out at 13%.
Still for that read-out and setting: the figure for `Cl.NC(=O)C1CCCN(CCCN2c3ccccc3CCc3ccccc32)C1` (stereo not shown) [Example 4, 1-(3-(10,11-Dihydro-5H-dibenz[b,f]azepin-5-yl)-1-propyl)-3-piperidinecarboxamide Hydrochloride] is 47%.
The same measure, in the same setting: as for `Cl.O=C(O)C1CCCCN1CCCN1c2ccccc2CCc2ccccc21` (stereo not shown) [Example 5, 1-(3-(10,11-Dihydro-5H-dibenz[b,f]azepin-5-yl)-1-propyl)-2-piperidinecarboxylic Acid Hydrochloride], the figure is 36%.
On to `Cl.O=C(O)C1CN(CCCN2c3ccccc3CCc3ccccc32)CCO1` (stereo not shown) [Example 8, 4-(3-(10,11-Dihydro-5H-dibenz[b,f]azepin-5-yl)-1-propyl)-2-morpholinecarboxylic Acid Hydrochloride], for which the “% Pain inhibition (inhibition of formalin induced pain response)” value turned out to be 34%.
On the same count and under the same terms, the figure for `Cl.O=C(O)C1Cc2ccccc2CN1CCCN1c2ccccc2CCc2ccccc21` (stereo not shown) [Example 9, 2-(3-(10,11-Dihydro-5H-dibenz[b,f]azepin-5-yl)-1-propyl)-1,2,3,4-tetrahydro-3-isoquinolinecarboxylic Acid Hydrochloride] is 29%.

Test system in the next data set: not given
Experiment: not given
Conditions: not given
Regarding `Cl.O=C(O)C1CCN(CCCN2c3ccccc3CCc3ccccc32)CC1`, the melting point lay in the range of 195 to 197 °C.
For the molecule `Cl.O=C(O)CC1CCN(CCCN2c3ccccc3CCc3ccccc32)CC1`, the melting point was in the range of 185 to 188 °C.
`Cl.O=C(O)C1CCN(CCC=C2c3ccccc3CCc3ccccc32)CC1` showed a melting point of 224 to 226 °C.
The molecule `Cl.NC(=O)[C@@H]1CCCN(CCC=C2c3ccccc3CCc3ccccc32)C1` registered a melting point greater than 250 °C.
In the case of `Cl.O=C(O)C1CCN(CCCN2c3ccccc3Oc3ccccc32)CC1`, the melting point was in the range of 196 to 198 °C.
Still for that read-out and setting: the figure for `Cl.O=C(O)CC1CCCN(CCCN2c3ccccc3CCc3ccccc32)C1` (stereo not shown) is 233 to 235 °C; for `Cl.O=C(O)C1CCN(CCCN2c3cc(Cl)ccc3CCc3ccc(Cl)cc32)CC1` it is 237 to 239 °C; for `Cc1ccc2c(c1)C(=CCCN1CCC(C(=O)O)CC1)c1ccccc1CC2.Cl` it is greater than 250 °C.
Same read-out and setting: the figure for `Cl.OCC1CCCN(CCCN2c3ccccc3CCc3ccccc32)C1` (stereo not shown) is 145 to 147 °C.
Same read-out and setting: as for `CC1C(C(=O)O)CCCN1CCCN1c2ccccc2CCc2ccccc21.Cl` (stereo not shown) (hydrate or solvate), the figure is 169 to 170 °C; as for `Cl.O=C(O)C1CCN(CCCN2c3ccc(Br)cc3CCc3cc(Br)ccc32)CC1` (hydrate or solvate), 165 to 166 °C; as for `O=C([O-])C1CN(CCCN2c3ccccc3CCc3ccccc32)CCN1.[K+]` (stereo not shown) (hydrate or solvate), 151 to 155 °C.
Consider `Cl.O=C(O)C1CCCCN1CCCN1c2ccccc2CCc2ccccc21` (stereo not shown) (hydrate or solvate) [Example 5, 1-(3-(10,11-Dihydro-5H-dibenz[b,f]azepin-5-yl)-1-propyl)-2-piperidinecarboxylic Acid Hydrochloride], for which the melting point was 122 to 126 °C.
Same read-out and setting: as for `Cl.O=C(O)C1CN(CCCN2c3ccccc3CCc3ccccc32)CCO1` (stereo not shown) (hydrate or solvate) [Example 8, 4-(3-(10,11-Dihydro-5H-dibenz[b,f]azepin-5-yl)-1-propyl)-2-morpholinecarboxylic Acid Hydrochloride], the figure is 196 to 199 °C.
`Cl.O=C(O)C1Cc2ccccc2CN1CCCN1c2ccccc2CCc2ccccc21` (stereo not shown) (hydrate or solvate) [Example 9, 2-(3-(10,11-Dihydro-5H-dibenz[b,f]azepin-5-yl)-1-propyl)-1,2,3,4-tetrahydro-3-isoquinolinecarboxylic Acid Hydrochloride] showed a melting point of 205 to 208 °C.
Same read-out and setting: the figure for `Cc1ccc2c(c1)N(CCCN1CCC(C(=O)O)CC1)c1cc(C)ccc1CC2` (hydrate or solvate) [Example 24, 1-(3-(3,7-Dimethyl-10,11-dihydro-5H-dibenz[b,f]azepin-5-yl)-1-propyl)-4-piperidinecarboxylic Acid] is 207 to 209 °C; for `CN(C)c1ccc2c(c1)N(CCCN1CCC(C(=O)O)CC1)c1ccccc1CC2` (hydrate or solvate) [Example 25, 1-(3-(3-Dimethylamino-10,11-dihydro-5H-dibenz[b,f]azepin-5-yl)-1-propyl)-4-piperidinecarboxylic Acid] it is 198 to 202 °C.
